Drawing on patent publication US20250134901A1, “PHARMACEUTICAL COMPOSITION CONTAINING COMBINATION OF MELOXICAM AND RIZATRIPTAN AND PROCESS OF PREPARATION THEREOF” (Alembic Pharmaceuticals Limited, priority 2021, published 2025), this text covers solubility for one molecule.

Each structure is given as a SMILES string. In brackets after ≈: the same amount, converted by molar mass. Like-named read-outs stand apart in the source and are kept apart here.

A short description of this data set: Solubility of meloxicam API in different pH buffered solutions. The data set is classed as physicochemical. The conditions noted are these: read-out: Meloxicam API Solubility (BCS).

On to `Cc1cnc(NC(=O)C2=C(O)c3ccccc3S(=O)(=O)N2C)s1` [Meloxicam, 4-hydroxy-2-methyl-N-(5-methyl-2-thiazolyl)-2H-1,2-benzothiazine-3-carboxamide-1,1-dioxide], for which the solubility (aqueous buffer, pH 4.5 Acetate buffer) turned out to be 30 µg/mL (≈ 85.4 µM); the solubility (aqueous buffer, pH 6.8 Phosphate Buffer) is 2700 µg/mL (≈ 7680 µM); the solubility (aqueous buffer, pH 7.5 Phosphate buffer) was determined as 110 µg/mL (≈ 313 µM); the solubility (simulated gastric fluid, 0.01N HCl (pH 2.0)) is 20 µg/mL (≈ 56.9 µM).
